Key:
Assay in all cases: relative viability (nuclei count vs DMSO), 5 days (fraction); higher = more cells survive
[1] = compound: CN(c1ncccc1CNc1nc(Nc2ccc3c(c2)CC(=O)N3)ncc1C(F)(F)F)S(C)(=O)=O + Nc1nc2[nH]cc(CCc3ccc(C(=O)N[C@@H](CCC(=O)O)C(=O)O)cc3)c2c(=O)[nH]1 [Pemetrexed] (partner 0.2 µM)
Procedure, shortened: (§1)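 After 5 days of treatment, lung cancer cells in 1536-well plates were fixed and stained in a single step (final 0.05% Triton X-100, 1% formaldehyde, 1 ug/ml Hoechst) and their nuclei counted on 4× images. Treatment had been applied by pin tool the day after seeding as one drug alone or as a fixed anchor-drug dose with five library-drug doses (not always all listed) in √10 steps. Relative viability is the nuclei count of treated wells divided by that of vehicle wells, and values are medians of duplicate plates.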

[2] = compound: CN(c1ncccc1CNc1nc(Nc2ccc3c(c2)CC(=O)N3)ncc1C(F)(F)F)S(C)(=O)=O + Cc1nc(NC(=O)N2CCC[C@H]2C(N)=O)sc1-c1ccnc(C(C)(C)C(F)(F)F)c1 [Alpelisib] (partner 2 µM)
Procedure, shortened: as §1

[3] = compound: CN(c1ncccc1CNc1nc(Nc2ccc3c(c2)CC(=O)N3)ncc1C(F)(F)F)S(C)(=O)=O + CC(=O)c1c(C)c2cnc(Nc3ccc(N4CCNCC4)cn3)nc2n(C2CCCC2)c1=O [Palbociclib] (partner 0.5 µM)
Procedure, shortened: as §1

[4] = compound: CN(c1ncccc1CNc1nc(Nc2ccc3c(c2)CC(=O)N3)ncc1C(F)(F)F)S(C)(=O)=O + O=C(c1cc(Cc2n[nH]c(=O)c3ccccc23)ccc1F)N1CCN(C(=O)C2CC2)CC1 [Olaparib] (partner 8 µM)
Procedure, shortened: as §1

NCI-H650 showed a relative viability ([1]; first compound 0.01 µM) of 0.884, a relative viability ([1]; first compound 0.03162 µM) of 0.935 and a relative viability ([1]; first compound 0.1 µM) of 0.826. For the same cell line, the relative viability ([1]; first compound 0.3162 µM) was 1.04, the relative viability ([1]; first compound 1 µM) was 0.621 and the relative viability ([2]; first compound 0.01 µM) was 1.01. The relative viability ([2]; first compound 0.03162 µM) was 1.23, the relative viability ([2]; first compound 0.1 µM) was 0.945 and the relative viability ([2]; first compound 0.3162 µM) was 0.832. It also gave a relative viability ([2]; first compound 1 µM) of 0.725, a relative viability ([3]; first compound 0.01 µM) of 0.324 and a relative viability ([3]; first compound 0.03162 µM) of 0.32. The relative viability ([3]; first compound 0.1 µM) was 0.307, the relative viability ([3]; first compound 0.3162 µM) was 0.266 and the relative viability ([3]; first compound 1 µM) was 0.3. It also gave a relative viability ([4]; first compound 0.01 µM) of 0.372, a relative viability ([4]; first compound 0.03162 µM) of 0.376 and a relative viability ([4]; first compound 0.1 µM) of 0.389. It also gave a relative viability ([4]; first compound 0.3162 µM) of 0.367 and a relative viability ([4]; first compound 1 µM) of 0.358.

Work on NCI-H661 yielded a relative viability ([1]; first compound 0.01 µM) of 0.869, a relative viability ([1]; first compound 0.03162 µM) of 0.941 and a relative viability ([1]; first compound 0.1 µM) of 0.885. It also gave a relative viability ([1]; first compound 0.3162 µM) of 0.832, a relative viability ([1]; first compound 1 µM) of 0.833 and a relative viability ([2]; first compound 0.01 µM) of 0.817. The relative viability ([2]; first compound 0.03162 µM) was 0.695, the relative viability ([2]; first compound 0.1 µM) was 0.546 and the relative viability ([2]; first compound 0.3162 µM) was 0.85. It also gave a relative viability ([2]; first compound 1 µM) of 0.5, a relative viability ([3]; first compound 0.01 µM) of 0.406 and a relative viability ([3]; first compound 0.03162 µM) of 0.385. The relative viability ([3]; first compound 0.1 µM) was 0.429, the relative viability ([3]; first compound 0.3162 µM) was 0.383 and the relative viability ([3]; first compound 1 µM) was 0.341. The relative viability ([4]; first compound 0.01 µM) was 0.727, the relative viability ([4]; first compound 0.03162 µM) was 0.85 and the relative viability ([4]; first compound 0.1 µM) was 0.74. The relative viability ([4]; first compound 0.3162 µM) was 0.771 and the relative viability ([4]; first compound 1 µM) was 0.7.

In the case of NCI-H838, the relative viability ([1]; first compound 0.01 µM) is reported as 0.247, the relative viability ([1]; first compound 0.03162 µM) is reported as 0.258 and the relative viability ([1]; first compound 0.1 µM) is reported as 0.247. It also gave a relative viability ([1]; first compound 0.3162 µM) of 0.219, a relative viability ([1]; first compound 1 µM) of 0.238 and a relative viability ([2]; first compound 0.01 µM) of 0.961. It also gave a relative viability ([2]; first compound 0.03162 µM) of 1.17, a relative viability ([2]; first compound 0.1 µM) of 1.01 and a relative viability ([2]; first compound 0.3162 µM) of 0.862. It also gave a relative viability ([2]; first compound 1 µM) of 0.705, a relative viability ([3]; first compound 0.01 µM) of 0.243 and a relative viability ([3]; first compound 0.03162 µM) of 0.237. For the same cell line, the relative viability ([3]; first compound 0.1 µM) was 0.211, the relative viability ([3]; first compound 0.3162 µM) was 0.204 and the relative viability ([3]; first compound 1 µM) was 0.204. For the same cell line, the relative viability ([4]; first compound 0.01 µM) was 0.736, the relative viability ([4]; first compound 0.03162 µM) was 0.809 and the relative viability ([4]; first compound 0.1 µM) was 0.725. The relative viability ([4]; first compound 0.3162 µM) was 0.55 and the relative viability ([4]; first compound 1 µM) was 0.43.

In the case of NCI-H1355, the relative viability ([1]; first compound 0.01 µM) is reported as 1.02, the relative viability ([1]; first compound 0.03162 µM) is reported as 0.981 and the relative viability ([1]; first compound 0.1 µM) is reported as 0.993. For the same cell line, the relative viability ([1]; first compound 0.3162 µM) was 1.02, the relative viability ([1]; first compound 1 µM) was 0.973 and the relative viability ([2]; first compound 0.01 µM) was 0.882. The relative viability ([2]; first compound 0.03162 µM) was 0.945, the relative viability ([2]; first compound 0.1 µM) was 0.797 and the relative viability ([2]; first compound 0.3162 µM) was 0.801. The relative viability ([2]; first compound 1 µM) was 0.696, the relative viability ([3]; first compound 0.01 µM) was 0.387 and the relative viability ([3]; first compound 0.03162 µM) was 0.362. It also gave a relative viability ([3]; first compound 0.1 µM) of 0.407, a relative viability ([3]; first compound 0.3162 µM) of 0.418 and a relative viability ([3]; first compound 1 µM) of 0.331. It also gave a relative viability ([4]; first compound 0.01 µM) of 0.7, a relative viability ([4]; first compound 0.03162 µM) of 0.784 and a relative viability ([4]; first compound 0.1 µM) of 0.713. The relative viability ([4]; first compound 0.3162 µM) was 0.691 and the relative viability ([4]; first compound 1 µM) was 0.669.

Work on NCI-H1395 yielded a relative viability ([1]; first compound 0.01 µM) of 1, a relative viability ([1]; first compound 0.03162 µM) of 0.882 and a relative viability ([1]; first compound 0.1 µM) of 0.865. The relative viability ([1]; first compound 0.3162 µM) was 0.98, the relative viability ([1]; first compound 1 µM) was 0.909 and the relative viability ([2]; first compound 0.01 µM) was 0.996. It also gave a relative viability ([2]; first compound 0.03162 µM) of 1.08, a relative viability ([2]; first compound 0.1 µM) of 0.997 and a relative viability ([2]; first compound 0.3162 µM) of 1.06. The relative viability ([2]; first compound 1 µM) was 1.06, the relative viability ([3]; first compound 0.01 µM) was 0.649 and the relative viability ([3]; first compound 0.03162 µM) was 0.602. The relative viability ([3]; first compound 0.1 µM) was 0.698, the relative viability ([3]; first compound 0.3162 µM) was 0.655 and the relative viability ([3]; first compound 1 µM) was 0.596. The relative viability ([4]; first compound 0.01 µM) was 0.454, the relative viability ([4]; first compound 0.03162 µM) was 0.484 and the relative viability ([4]; first compound 0.1 µM) was 0.492. The relative viability ([4]; first compound 0.3162 µM) was 0.457 and the relative viability ([4]; first compound 1 µM) was 0.471.

NCI-H1437 was tested, and the relative viability ([1]; first compound 0.01 µM) was 0.332, the relative viability ([1]; first compound 0.03162 µM) was 0.335 and the relative viability ([1]; first compound 0.1 µM) was 0.33. It also gave a relative viability ([1]; first compound 0.3162 µM) of 0.347, a relative viability ([1]; first compound 1 µM) of 0.398 and a relative viability ([2]; first compound 0.01 µM) of 0.973. The relative viability ([2]; first compound 0.03162 µM) was 1.13, the relative viability ([2]; first compound 0.1 µM) was 1.05 and the relative viability ([2]; first compound 0.3162 µM) was 0.941. For the same cell line, the relative viability ([2]; first compound 1 µM) was 0.788, the relative viability ([3]; first compound 0.01 µM) was 0.348 and the relative viability ([3]; first compound 0.03162 µM) was 0.297. For the same cell line, the relative viability ([3]; first compound 0.1 µM) was 0.265, the relative viability ([3]; first compound 0.3162 µM) was 0.269 and the relative viability ([3]; first compound 1 µM) was 0.209. The relative viability ([4]; first compound 0.01 µM) was 0.63, the relative viability ([4]; first compound 0.03162 µM) was 0.633 and the relative viability ([4]; first compound 0.1 µM) was 0.59. It also gave a relative viability ([4]; first compound 0.3162 µM) of 0.583 and a relative viability ([4]; first compound 1 µM) of 0.466.

NCI-H1651 was tested, and the relative viability ([1]; first compound 0.01 µM) was 0.585, the relative viability ([1]; first compound 0.03162 µM) was 0.593 and the relative viability ([1]; first compound 0.1 µM) was 0.558. For the same cell line, the relative viability ([1]; first compound 0.3162 µM) was 0.575, the relative viability ([1]; first compound 1 µM) was 0.579 and the relative viability ([2]; first compound 0.01 µM) was 0.992. For the same cell line, the relative viability ([2]; first compound 0.03162 µM) was 1, the relative viability ([2]; first compound 0.1 µM) was 0.873 and the relative viability ([2]; first compound 0.3162 µM) was 0.899. For the same cell line, the relative viability ([2]; first compound 1 µM) was 0.916, the relative viability ([3]; first compound 0.01 µM) was 0.527 and the relative viability ([3]; first compound 0.03162 µM) was 0.529. It also gave a relative viability ([3]; first compound 0.1 µM) of 0.529, a relative viability ([3]; first compound 0.3162 µM) of 0.487 and a relative viability ([3]; first compound 1 µM) of 0.5. It also gave a relative viability ([4]; first compound 0.01 µM) of 0.187, a relative viability ([4]; first compound 0.03162 µM) of 0.172 and a relative viability ([4]; first compound 0.1 µM) of 0.204. It also gave a relative viability ([4]; first compound 0.3162 µM) of 0.183 and a relative viability ([4]; first compound 1 µM) of 0.197.

NCI-H1666 showed a relative viability ([1]; first compound 0.01 µM) of 0.877, a relative viability ([1]; first compound 0.03162 µM) of 0.82 and a relative viability ([1]; first compound 0.1 µM) of 0.805. For the same cell line, the relative viability ([1]; first compound 0.3162 µM) was 0.78, the relative viability ([1]; first compound 1 µM) was 0.787 and the relative viability ([2]; first compound 0.01 µM) was 1.11. For the same cell line, the relative viability ([2]; first compound 0.03162 µM) was 0.72, the relative viability ([2]; first compound 0.1 µM) was 0.877 and the relative viability ([2]; first compound 0.3162 µM) was 0.79. It also gave a relative viability ([2]; first compound 1 µM) of 0.686, a relative viability ([3]; first compound 0.01 µM) of 0.696 and a relative viability ([3]; first compound 0.03162 µM) of 0.614. It also gave a relative viability ([3]; first compound 0.1 µM) of 0.627, a relative viability ([3]; first compound 0.3162 µM) of 0.639 and a relative viability ([3]; first compound 1 µM) of 0.543. For the same cell line, the relative viability ([4]; first compound 0.01 µM) was 0.671, the relative viability ([4]; first compound 0.03162 µM) was 0.755 and the relative viability ([4]; first compound 0.1 µM) was 0.702. For the same cell line, the relative viability ([4]; first compound 0.3162 µM) was 0.744 and the relative viability ([4]; first compound 1 µM) was 0.706.
